Consider six molecules from PMC7894572 (Chemmedchem, 2020).

Read-outs that look alike come from different tables or passages of the source.

The target of one data set is SARS‐CoV‐2 PL^pro (Severe acute respiratory syndrome coronavirus 2, UniProt P0DTD1). The data set can be described thus: biochemical. It counts as biochemical.
The nature of the next data set: in vitro. The settings on record: African green monkey.
For data set [1], the target named is T1, SARS‐CoV PL^pro (Severe acute respiratory syndrome coronavirus, UniProt P0C6X7). The data set can be described thus: biochemical. It counts as biochemical.
The subject of a further data set is SARS‐CoV‐2. The data set can be described thus: microbe, parasite or virus in culture. Type of data set: cell-based. The settings on record: for EC50: Severe acute respiratory syndrome coronavirus 2, Vero C1008, 24 h, read-out: EC50 inhibition of SARS‐CoV‐2 replication.
Data set [2] addresses T1, SARS‐CoV PL^pro. The settings on record: read-out: IC50 SARS‐CoV PL^pro; cited from earlier work.

As to `C[C@@H](NC(=O)c1ccccc1Cl)c1cccc2ccccc12` [Compound 2 i, 2‐Chloro‐N‐[(1R)‐1‐naphth‐1‐ylethyl]benzamide], the melting point worked out at 133 °C. In addition, at SARS‐CoV‐2 PL^pro, inhibition was half-maximal at 15 ± 2 µM (IC50). In addition, the CC50 in the data set “in vitro” is 376 ± 1.36 µM. At SARS‐CoV PL^pro [1], this molecule gave an IC50 of 6.5 ± 0.8 µM. In the data set on SARS‐CoV‐2, the “SI (selectivity index)” value was found to be 212 and the EC50 was 1.77 ± 1.6 µM.
Regarding `C[C@H](c1cccc2ccccc12)N1CCC(C(=O)NCc2cccc(F)c2)CC1` [Compound 20], on SARS‐CoV PL^pro [2], the IC50 is 0.15 µM.
Consider `CCc1ccccc1C(=O)NC(C)c1ccc2ccccc2c1` (stereo not shown) [Compound 19], for which the half-inhibitory concentration (IC50) at SARS‐CoV PL^pro [2] is above 200 µM.
With `C[C@H](c1cccc2ccccc12)N1Cc2ccccc2C1.Cl` [Compound 14 h, 2‐[(1R)‐1‐Naphth‐1‐ylethyl]‐2,3‐dihydro‐1H‐isoindol hydrochloride], the values for the IC50 against SARS‐CoV‐2 PL^pro and against SARS‐CoV PL^pro [1] were 7.6 ± 0.2 µM and 2.9 ± 0.2 µM, respectively. This molecule displayed a CC50 in “in vitro” of 442 ± 1.37 µM. Besides, the “SI (selectivity index)” value with SARS‐CoV‐2 was found to be 56.3. In the data set on SARS‐CoV‐2, the EC50 turned out to be 7.85 ± 1.5 µM.
Take `Cc1cc(N)ccc1C(=O)N[C@H](C)c1cccc2ccccc12.Cl` [Compound 2 p, (R)‐4‐Amino‐2‐methyl‐N‐[1‐(naphth‐1‐yl)ethyl]benzamide hydrochloride]: the melting point was determined as 231 °C. This molecule also yielded a half-maximal inhibitory concentration (IC50) at SARS‐CoV‐2 PL^pro of 7.5 ± 0.6 µM. Moreover, the CC50 in the data set “in vitro” is above 500 µM. For the same molecule, in the data set on SARS‐CoV‐2, the “SI (selectivity index)” value was above 31.7 and the EC50 is 15.8 ± 1.59 µM.
Turning to `C[C@H](c1cccc2ccccc12)N1Cc2ccc(N)cc2C1` [Compound 14 k, 2‐[(1R)‐1‐Naphth‐1‐ylethyl]‐2,3‐dihydro‐1H‐isoindol‐5‐amine], the IC50 amounted to 57 ± 1 µM against SARS‐CoV‐2 PL^pro and 4.9 ± 0.3 µM on SARS‐CoV PL^pro [1]. In “in vitro”, this molecule yielded a CC50 above 500 µM. Also, the “Activity in the viral replication assay, in words” value in the data set with SARS‐CoV‐2 (SARS‐CoV‐2, Vero E6 cells) is “completely inactive”.
